From patent publication US20130237415A1 (priority 2010, published 2013)
Read-outs that look alike come from different tables or passages of the source.

Assays:
[1] = test system: Fusarium graminearum; assay type: in vivo; conditions: for % DON Reduction: spring wheat, Group A, GS 59, 100 gai/ha, relative to inoculated untreated check; for DON Levels (% of Control) / DON Levels (ppm) / Observed % DON Efficacy: harvested spring wheat grain, Group B
[2] = test system: Fusarium verticillioides; conditions: for F. verticilliodes disease severity (in words): safeners alone at 100 gai/ha
Protocol: Corn seeds of the Garst hybrid 86C73-3000GT were planted and grown in the greenhouse at 22° C., 12 hours of light/12 hours of dark using an experiment based on a randomized complete block (RCB) design with ten replicates.
Safeners tested were: N-(2-methoxybenzoyl)-4-[(methylaminocarbonyl)amino]benzenesulfonamide, Cyprosulfamide, and Isoxadifen, alone and in combination with Prothioconazole fungicide, were applied at the beginning of tasselling stage (GS 51-55) at rates of 100 gai/ha. Prothioconazole was tested alone at rates of 50, 100, and 200 gai/ha. Prothioconazole was tested in combination with safeners at 100 gai/ha. An additional treatment of Prothioconazole at 50 gai/ha+Isoxadifen at 100 gai/ha was included. All treatments were applied a water volume of 220 L/ha using a track sprayer. The adjuvant X-77 was included in each treatment of maize at a rate of 0.125% v/v. Untreated non-innoculated and inoculated control treatments were included within the treatment list.
Maize was inoculated with Fusarium verticillioides at flowering/silking stage (GS 61-65) by spraying conidia of F. verticillioides on the emerged silk at 1.0×10^6 conidia/mL. Treated plants where then incubated in the dark at 22° C. for 3 days in the dark at 100% R.H., followed by 6 days at 65% R.H. at 12 hour light/dark intervals at 22° C.
Maize was harvested at maturity, the weight of corn seeds per ear was recorded. Fusarium disease severity per maize ear was determined by plating a ten seeds per ear on Fusarium selective agar media. Seeds were surface sterilized with 5% sodium hypochloride for 1 minute followed by washing with sterile water for 1 minute, prior to plating on selective media. After plating, seeds were incubated in the dark at 15° C. for 10 days.

[3] = test system: Fusarium graminearum; assay type: in vivo; conditions: for % FHB Control* / FHB Area / FHB Area (% of Control) / Observed % FHB Efficacy: spring wheat; for % FHB Control*: Group A, GS 59, 100 gai/ha, relative to inoculated untreated check; for FHB Area / FHB Area (% of Control) / Observed % FHB Efficacy: Group B

Molecule	% DON Reduction [1] [%]	F. verticilliodes disease severity (in words) ([2]; maize)	% FHB Control* [3] [%]	DON Levels (% of Control) ([1]; GS 65/69, 50 gai/ha) [%]	DON Levels (ppm) ([1]; GS 65/69, 50 gai/ha)	Observed % DON Efficacy ([1]; GS 65/69, 50 gai/ha) [%]	DON Levels (% of Control) ([1]; GS 65/69, 100 gai/ha) [%]	DON Levels (ppm) ([1]; GS 65/69, 100 gai/ha)	Observed % DON Efficacy ([1]; GS 65/69, 100 gai/ha) [%]	DON Levels (% of Control) ([1]; GS 65/69, 200 gai/ha) [%]	DON Levels (ppm) ([1]; GS 65/69, 200 gai/ha)	Observed % DON Efficacy ([1]; GS 65/69, 200 gai/ha) [%]	FHB Area ([3]; GS 65/69, 50 gai/ha) [%]	FHB Area (% of Control) ([3]; GS 65/69, 50 gai/ha) [%]	Observed % FHB Efficacy ([3]; GS 65/69, 50 gai/ha) [%]	FHB Area ([3]; GS 65/69, 100 gai/ha) [%]	FHB Area (% of Control) ([3]; GS 65/69, 100 gai/ha) [%]	Observed % FHB Efficacy ([3]; GS 65/69, 100 gai/ha) [%]	FHB Area ([3]; GS 65/69, 200 gai/ha) [%]	FHB Area (% of Control) ([3]; GS 65/69, 200 gai/ha) [%]	also measured
CNC(=O)Nc1ccc(S(=O)(=O)NC(=O)c2ccccc2OC)cc1	0	greatly reduced	7																		
CON(C(=O)c1cn(C)nc1C(F)F)C(C)Cc1c(Cl)cc(Cl)cc1Cl (centres unmarked) [3-difluoromethyl-1-methyl-1H-pyrazole-4-carboxylic acid methoxy-[1-methyl-2-(2,4,6-trichlorophenyl)-ethyl]-amide]				25.9	7.084	74.1	16.1	4.388	83.9	11.7	3.187	88.3	8.3	13.7	86.3	7.5	12.4	87.6	7	11.5	Observed % FHB Efficacy ([3]; GS 65/69, 200 gai/ha): 88.5%
CCCCCC(C)OC(=O)COc1ccc(Cl)c2cccnc12 (centres unmarked) [Cloqunitocet, 1-methylhexyl[(5-chloro-8-quinolinyl)oxy]acetate]	9		1																		
O=C(O)C1=NOC(c2ccccc2)(c2ccccc2)C1 [Isoxadifen, 4,5-dihydro-5,5-diphenyl-3-isoxazolecarboxylic acid]	17	greatly reduced	0				106.6	29.098	0.0							81.3	133.9	0.0			effectiveness of treatment for maize (in words) ([2]; maize): Particularly effective; effectiveness of treatment for wheat (in words) ([3]; wheat): Particularly effective
Prothioconazole				37.6	10.274	62.4	38.3	10.456	61.7	15.8	4.322	84.2	28.1	46.3	53.7	57.5	94.7	5.3	7.3	12.0	Fusarium verticilliodes disease severity per maize ear (in words) ([2]; treated versus untreated control maize plants): reduced disease severity; Observed % FHB Efficacy ([3]; GS 65/69, 200 gai/ha): 88.0%
